Source: US20250197372A1 (priority 2020, published 2025)

Molecular target: recombinant human GAA (acid alpha-glucosidase) (Homo sapiens, UniProt P10253)
Test: Acid alpha-glucosidase (GAA) assay (4-methylumbelliferyl-alpha-D-pyranoside substrate, fluorescence)
Type: biochemical
In short: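 Recombinant human enzyme preincubated 60 min at 37 °C with compound dilutions, then 4-methylumbelliferyl-alpha-D-pyranoside substrate added for 20 min at 37 °C. Stopped with glycine/NaOH pH 10; methylumbelliferone fluorescence (ex 365, em 440 nm) versus untreated enzyme; IC50 by 4-PL fit.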

SMILES | IC50 [nM]
COc1cc(Br)cc(NCCn2cc(CCN3C[C@H](O)[C@@H](O)[C@H](O)[C@H]3CO)c3ccccc32)c1 [Compound 1075, (2R,3R,4R,5S)-1-[2-(1-{2-[(3-bromo-5-methoxyphenyl)amino]ethyl}-1H-indol-3-yl)ethyl]-2-(hydroxymethyl)piperidine-3,4,5-triol] | 3730
OC[C@@H]1[C@@H](O)[C@H](O)[C@@H](O)CN1CCc1cn(CCNc2ccccc2)c2ccccc12 [Compound 1076, (2R,3R,4R,5S)-2-(hydroxymethyl)-1-(2-{1-[2-(phenylamino)ethyl]-1H-indol-3-yl}ethyl)piperidine-3,4,5-triol] | 4260
CC(C)c1cc(CCNc2ccc(N=[N+]=[N-])cc2[N+](=O)[O-])cc(CCN2C[C@H](O)[C@@H](O)[C@H](O)[C@H]2CO)c1 [Compound 1077, (2R,3R,4R,5S)-1-[2-(3-{2-[(4-azido-2-nitrophenyl)amino]ethyl}-5-(propan-2-yl)phenyl)ethyl]-2-(hydroxymethyl)piperidine-3,4,5-triol] | 10000
O=[N+]([O-])c1cc(-c2ncc[nH]2)ccc1NCCc1ccc(CCN2C[C@H](O)[C@@H](O)[C@H](O)[C@H]2CO)cc1 [Compound 1078, (2R,3R,4R,5S)-2-(hydroxymethyl)-1-{2-[4-(2-{[4-(1H-imidazol-2-yl)-2-nitrophenyl]amino}ethyl)phenyl]ethyl}piperidine-3,4,5-triol] | 343
OC[C@@H]1[C@@H](O)[C@H](O)[C@@H](O)CN1Cc1cccc(CNc2ccc(N3CCOCC3)cc2)c1 [Compound 1081, (2R,3R,4R,5S)-2-(hydroxymethyl)-1-{[3-({[4-(morpholin-4-yl)phenyl]amino}methyl)phenyl]methyl}piperidine-3,4,5-triol] | 1270
OC[C@@H]1[C@@H](O)[C@H](O)[C@@H](O)CN1Cc1cccc(CNc2ccc(-c3ccc[nH]3)cc2)c1 [Compound 1082, (2R,3R,4R,5S)-2-(hydroxymethyl)-1-{[3-({[4-(1H-pyrrol-2-yl)phenyl]amino}methyl)phenyl]methyl}piperidine-3,4,5-triol] | 872
OC[C@@H]1[C@@H](O)[C@H](O)[C@@H](O)CN1Cc1cccc(CNc2ccc(-c3cccnn3)cc2)c1 [Compound 1083, (2R,3R,4R,5S)-2-(hydroxymethyl)-1-{[3-({[4-(pyridazin-3-yl)phenyl]amino}methyl)phenyl]methyl}piperidine-3,4,5-triol] | 1950
OC[C@@H]1[C@@H](O)[C@H](O)[C@@H](O)CN1Cc1cccc(CNc2ccc(-c3ncccn3)cc2)c1 [Compound 1084, (2R,3R,4R,5S)-2-(hydroxymethyl)-1-{[3-({[4-(pyrimidin-2-yl)phenyl]amino}methyl)phenyl]methyl}piperidine-3,4,5-triol] | 2350
O=[N+]([O-])c1cc(CN2CCCO2)ccc1NCc1cccc(CN2C[C@H](O)[C@@H](O)[C@H](O)[C@H]2CO)c1 [Compound 1086] | 976
O=[N+]([O-])c1cc(C2=COCCO2)ccc1NCc1cccc(CN2C[C@H](O)[C@@H](O)[C@H](O)[C@H]2CO)c1 [Compound 1087, (2R,3R,4R,5S)-1-{[3-({[4-(5,6-dihydro-1,4-dioxin-2-yl)-2-nitro-phenyl]amino}methyl)phenyl]methyl}-2-(hydroxymethyl)piperidine-3,4,5-triol] | 554
O=[N+]([O-])c1cc(-c2ccc[nH]2)ccc1NCc1cccc(CN2C[C@H](O)[C@@H](O)[C@H](O)[C@H]2CO)c1 [Compound 1088, (2R,3R,4R,5S)-2-(hydroxymethyl)-1-{[3-({[2-nitro-4-(1H-pyrrol-2-yl)phenyl]amino}methyl)phenyl]methyl}piperidine-3,4,5-triol] | 1950
O=[N+]([O-])c1cc(-c2cccnn2)ccc1NCc1cccc(CN2C[C@H](O)[C@@H](O)[C@H](O)[C@H]2CO)c1 [Compound 1089, (2R,3R,4R,5S)-2-(hydroxymethyl)-1-{[3-({[2-nitro-4-(pyridazin-3-yl)phenyl]amino}methyl)phenyl]methyl}piperidine-3,4,5-triol] | 572
O=[N+]([O-])c1cc(-c2ncccn2)ccc1NCc1cccc(CN2C[C@H](O)[C@@H](O)[C@H](O)[C@H]2CO)c1 [Compound 1090, (2R,3R,4R,5S)-2-(hydroxymethyl)-1-{[3-({[2-nitro-4-(pyrimidin-2-yl)phenyl]amino}methyl)phenyl]methyl}piperidine-3,4,5-triol] | 509
OC[C@@H]1[C@@H](O)[C@H](O)[C@@H](O)CN1Cc1ccc(CNc2ccc(CN3CCCO3)cc2)cc1 [Compound 1092, (2R,3R,4R,5S)-2-(hydroxymethyl)-1-({4-[({4-[(1,2-oxazolidin-2-yl)methyl]phenyl}amino)methyl]phenyl}methyl)piperidine-3,4,5-triol] | 786
OC[C@@H]1[C@@H](O)[C@H](O)[C@@H](O)CN1Cc1ccc(CNc2ccc(C3=COCCO3)cc2)cc1 [Compound 1093, (2R,3R,4R,5S)-1-{[4-({[4-(5,6-dihydro-1,4-dioxin-2-yl)phenyl]amino}methyl)phenyl]methyl}-2-(hydroxymethyl)piperidine-3,4,5-triol] | 108
OC[C@@H]1[C@@H](O)[C@H](O)[C@@H](O)CN1Cc1ccc(CNc2ccc(-c3ccc[nH]3)cc2)cc1 [Compound 1094, (2R,3R,4R,5S)-2-(hydroxymethyl)-1-{[4-({[4-(1H-pyrrol-2-yl)phenyl]amino}methyl)phenyl]methyl}piperidine-3,4,5-triol] | 246
OC[C@@H]1[C@@H](O)[C@H](O)[C@@H](O)CN1Cc1ccc(CNc2ccc(-c3ncccn3)cc2)cc1 [Compound 1096, (2R,3R,4R,5S)-2-(hydroxymethyl)-1-{[4-({[4-(pyrimidin-2-yl)phenyl]amino}methyl)phenyl]methyl}piperidine-3,4,5-triol] | 259
O=[N+]([O-])c1cc(C2=COCCO2)ccc1NCc1ccc(CN2C[C@H](O)[C@@H](O)[C@H](O)[C@H]2CO)cc1 [Compound 1099, (2R,3R,4R,5S)-1-{[4-({[4-(5,6-dihydro-1,4-dioxin-2-yl)-2-nitrophenyl]amino}methyl)phenyl]methyl}-2-(hydroxymethyl)piperidine-3,4,5-triol] | < 1
O=[N+]([O-])c1cc(-c2ccc[nH]2)ccc1NCc1ccc(CN2C[C@H](O)[C@@H](O)[C@H](O)[C@H]2CO)cc1 [Compound 1100, (2R,3R,4R,5S)-2-(hydroxymethyl)-1-{[4-({[2-nitro-4-(1H-pyrrol-2-yl)phenyl]amino}methyl)phenyl]methyl}piperidine-3,4,5-triol] | 161
O=[N+]([O-])c1cc(-c2cccnn2)ccc1NCc1ccc(CN2C[C@H](O)[C@@H](O)[C@H](O)[C@H]2CO)cc1 [Compound 1101, (2R,3R,4R,5S)-2-(hydroxymethyl)-1-{[4-({[2-nitro-4-(pyridazin-3-yl)phenyl]amino}methyl)phenyl]methyl}piperidine-3,4,5-triol] | 25
O=[N+]([O-])c1cc(-c2ncccn2)ccc1NCc1ccc(CN2C[C@H](O)[C@@H](O)[C@H](O)[C@H]2CO)cc1 [Compound 1102, (2R,3R,4R,5S)-2-(hydroxymethyl)-1-{[4-({[2-nitro-4-(pyrimidin-2-yl)phenyl]amino}methyl)phenyl]methyl}piperidine-3,4,5-triol] | 28
